Paper PMC10325900, “A conserved motif in the disordered linker of human MLH1 is vital for DNA mismatch repair and its function is diminished by a cancer family mutation” (Nucleic Acids Research, 2023)
No end group written: not given here.

System: DNA mismatch repair reaction of MMR-proficient HEK293 cell extract
Test: MMR competition test with nuclear extract of MMR-proficient HEK293 cells
Assay type: biochemical, human
Conditions: up to 75 μM ConMot-32 peptide
Protocol: Mismatch repair activity was assessed as described in detail before ([79],[81]) (Supplementary Figure S3). […] Mismatched DNA plasmid substrate (Supplementary Figure S3) prepared according to previously published procedures ([81–83]) was added, and reactions in a final volume of 25 μl were incubated at 37°C for 15 min. Repair efficiency was scored by purifying the mismatched DNA plasmid from the reaction and assessing the fraction of homoduplex sequence by restriction digestion of the mismatched site using EcoRV. The substrate was additionally linearized with AseI.
For complementation assays with peptide, the indicated peptide(s) were used at stock concentrations of 50 or 500 μM in HEPES–KOH 20 mM pH 7.6 and supplemented to the MMR reactions. […]
Figure 4. […] (C) The concentration-dependence of the MMR-activating effect of the ConMot-32 peptide observed in (B) was measured over a concentration range from 1–75 μM. […] Into this diagram, the average MMR activities (and standard deviations) measured in >3 of the experiment exemplarily shown in C were introduced as bars at ConMot-32 peptide concentrations of 1, 2.5, 7.5, 18 and 75 μM. […]
In parallel, the single- strand nick is ligated. […] 40- 80% absolute repair, determined as signal intensities of the repair bands divided by sum of […]

Question: Which “interference with regular DNA mismatch repair” value (listed as ConMot peptide) does the source give for “SGSSDKVYAHQMVRTDSREQKLDAFLQPLSKP [ConMot-32]” here?
Answer: Its value is “did not detectably interfere”.

Question: What about the “interference with regular DNA mismatch repair” value (listed as ConMot-peptide) of the same sequence?
Answer: Its value is “not attenuated”.
